The source of these data is paper PMC9105517, “Biological Activities of Lichen-Derived Monoaromatic Compounds” (Molecules, 2022).

The target in experiment [1] is T1, Saccharomyces cerevisiae α-glucosidase (E.C 3.2.1.20) (Saccharomyces cerevisiae, UniProt P53341).
T1 construct: purchased Sigma Aldrich Co (Saint Louis, MO, USA)
Kind of experiment: biochemical. As to the method: The alpha-glucosidase (0.2 U/mL) and substrate (5.0 mM pNPG) were dissolved in 100 mM pH 6.9 sodium phosphate buffer. The inhibitor (50 µL) was preincubated with alpha-glucosidase at 37 °C for 20 min, and the substrate (40 µL) was subsequently added to the reaction mixture. The enzymatic reaction was conducted at 37 °C for 20 min and ended by adding 0.2 M Na2CO3 (130 μL). Enzymatic activity was quantitatively measured at an absorbance of 405 nm (CLARIOstar plus, BMG LABTECH, Ortenberg, Germany). All samples were analyzed in triplicate at five different concentrations around the IC50 values, and the mean values were retained. The following equation was used to calculate the inhibition percentage (%): Inhibition (%) = [1 − (Asample/Acontrol)] × 100.

For experiment [2], the system named is Staphylococcus aureus. Kind of experiment: Agar well diffusion antimicrobial assay. The experiment is classed as cell-based. The following applies: 8 mm wells. The method, then:
(§1) The agar well diffusion method was utilized to investigate the antibacterial activity of the isolated compounds on antibiotic-resistant, pathogenic bacteria E. faecium, S. aureus, and A. baumannii. Three bacterial pathogens were cultured in nutrient broth at 37 °C for 18 h. The cultures were diluted with sterile 0.9% NaCl to obtain bacterial solutions of 1.5 × 10^8 CFU/mL. This solution with a volume of 100 μL was spread on a Mueller-Hinton agar plate. Holes with a diameter of 8 mm were punched aseptically to create wells on the surface of the Mueller–Hinton agar. The compounds were dissolved in DMSO. The amount of 50 µg of each compound solution was inserted into the wells. The plates were incubated at 37 °C for 16–18 h and the antibacterial activity of each compound was recorded by measuring the diameters of the inhibition zones surrounding the wells. The determination of the minimum inhibitory concentration of 9a against Staphylococcus aureus was performed by the agar dilution method. Compound 9a was dissolved in DMSO to the final concentration of 1 mg/mL and then diluted with Mueller–Hinton agar (MHA) to the concentration range of 0, 1, 2, 4, 8, 16, 32, 64 μg/mL as the final concentrations in MHA plates. S. aureus was cultured in nutrient broth at 37 °C overnight with shaking. […] 1 μL of the diluted bacterial solution (10^4 CFU) was placed on the surface of the MHA plates and the plates were incubated at 37 °C for 16–18 h. The MIC value was recorded as the lowest concentration of 9a that inhibited the growth of S. aureus. Kanamycin was chosen as the positive control in this experiment, while DMSO was regarded as a control.

In the next experiment the test system is various microorganisms. Also noted: method as in doi:10.1007/s11101-010-9201-1, PMID 12487331. The following applies: cited from earlier work.
In a further experiment the test system is alpha-glucosidase. Also noted: method as in doi:10.1007/s10600-021-03404-z, PMID 33656403, PMID 29968482, PMID 18981604. The following applies: cited from earlier work.
The subject of a further experiment is Acinetobacter baumannii. Kind of experiment: Agar well diffusion antimicrobial assay. The experiment is classed as cell-based. Particulars: 8 mm wells. As to the method: as §1
On the technique in general: Agar diffusion results depend on both activity and mobility in agar.

The test system of a further experiment is Enterococcus faecium. As to the kind of experiment: Agar well diffusion antimicrobial assay. In kind it is cell-based. The following applies: 8 mm wells. The method, then: as §1
Experiment [3] has as its system S. aureus, Bacillus subtilis, Pseudomonas aeruginosa, Candida albicans, Escherichia coli, and Aspergillus niger. Also noted: method as in PMID 3834834. Particulars: various microorganisms; cited from earlier work.
Experiment [4] relates to Staphylococcus aureus. As to the kind of experiment: Minimum inhibitory concentration by agar dilution method. In kind it is cell-based. Particulars: 37 °C, 16–18 h. The method, then: The agar well diffusion method was utilized to investigate the antibacterial activity of the isolated compounds on antibiotic-resistant, pathogenic bacteria E. faecium, S. aureus, and A. baumannii. Three bacterial pathogens were cultured in nutrient broth at 37 °C for 18 h. The cultures were diluted with sterile 0.9% NaCl to obtain bacterial solutions of 1.5 × 10^8 CFU/mL. This solution with a volume of 100 μL was spread on a Mueller-Hinton agar plate. Holes with a diameter of 8 mm were punched aseptically to create wells on the surface of the Mueller–Hinton agar. The compounds were dissolved in DMSO. The amount of 50 µg of each compound solution was inserted into the wells. The plates were incubated at 37 °C for 16–18 h and the antibacterial activity of each compound was recorded by measuring the diameters of the inhibition zones surrounding the wells. The determination of the minimum inhibitory concentration of 9a against Staphylococcus aureus was performed by the agar dilution method. Compound 9a was dissolved in DMSO to the final concentration of 1 mg/mL and then diluted with Mueller–Hinton agar (MHA) to the concentration range of 0, 1, 2, 4, 8, 16, 32, 64 μg/mL as the final concentrations in MHA plates. S. aureus was cultured in nutrient broth at 37 °C overnight with shaking. […] The MIC value was recorded as the lowest concentration of 9a that inhibited the growth of S. aureus. […]
For orientation: Agar dilution tests growth on a series of plates holding different concentrations.

[5] abbreviates: in vitro, 37 °C, pH 6.9, triplicate, read-out: IC50, alpha-glucosidase inhibitory activity (converted).

Values after ≈ are worked out from the molar mass of the structure shown. Read-outs that look alike come from different tables or passages of the source. Bounds are passed on as bounds.

T1 sequence (P53341 whole entry): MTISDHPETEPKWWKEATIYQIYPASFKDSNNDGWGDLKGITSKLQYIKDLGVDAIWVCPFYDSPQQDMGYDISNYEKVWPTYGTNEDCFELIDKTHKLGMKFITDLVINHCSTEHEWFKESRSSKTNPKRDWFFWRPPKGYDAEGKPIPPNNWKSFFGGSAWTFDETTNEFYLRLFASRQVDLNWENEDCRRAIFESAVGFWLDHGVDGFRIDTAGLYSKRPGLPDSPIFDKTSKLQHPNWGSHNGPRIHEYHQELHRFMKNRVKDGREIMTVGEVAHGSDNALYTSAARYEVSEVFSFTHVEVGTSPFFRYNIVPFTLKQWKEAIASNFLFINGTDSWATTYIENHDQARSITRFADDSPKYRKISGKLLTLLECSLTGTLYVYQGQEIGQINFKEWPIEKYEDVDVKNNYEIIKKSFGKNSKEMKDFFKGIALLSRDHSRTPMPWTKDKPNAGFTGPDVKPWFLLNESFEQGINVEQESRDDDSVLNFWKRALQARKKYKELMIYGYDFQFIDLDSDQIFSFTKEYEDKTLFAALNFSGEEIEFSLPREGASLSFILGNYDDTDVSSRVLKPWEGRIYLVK

In general, IC50 refers to the point on the concentration scale where inhibition reaches its midpoint. What is called zone of inhibition is the size of the clear area around the sample on an inoculated plate. What is called MIC is the lowest concentration found to suppress growth. Take `COC(=O)c1c(C)cc(O)cc1O` [Compound 9, methyl orsellinate]: the IC50 in experiment [1] was over 1650 µM. Further, the zone of inhibition at 50 µg/mL in the experiment with Staphylococcus aureus [2] came to 13 mm. Also, in the experiment on various microorganisms, the MIC was 30 to 500 µg/mL. In addition, in the experiment on alpha-glucosidase, the “alpha-glucosidase inhibition (in words)” value was “weak inhibitors”. `Cc1c(O)cc(C(=O)O)cc1O` [Compound 3, 3,5-dihydroxy-4-methylbenzoic acid] gave an IC50 in experiment [1] of 143 µM. The molecule `COC(=O)c1c(C)c(Br)c(O)c(C)c1O` [Compound 8a, methyl 5-bromo-β-orsellinate] showed an IC50 in experiment [1] of 606 µM. In the experiment with Staphylococcus aureus [2], this molecule yielded a zone of inhibition at 50 µg/mL of 12 mm. For `Cc1c(Br)c(O)c(Br)c(O)c1C(=O)OCC(O)C(O)CO` [Compound 10b, 3,5-dibromo-D-montagnetol], the midpoint of inhibition in experiment [1], the IC50, lay at 301 µM.

Take cristiferide A: the “alpha-glucosidase inhibition (in words)” value in the experiment on alpha-glucosidase is “potent activity”.

In the case of `COC(=O)c1c(C)cc(O)c(C)c1O` [Compound 8, methyl β-orsellinate], in experiment [1], the IC50 is over 1530 µM. Also, the zone of inhibition at 50 µg/mL in the experiment on Acinetobacter baumannii amounted to 16 mm; in the experiment with Enterococcus faecium it was 13 mm; in the experiment with Staphylococcus aureus [2] it was 18 mm. For the same molecule, the minimal inhibitory concentration (MIC) with various microorganisms is 30 to 500 µg/mL; in experiment [3] it was 80 to 160 µg/mL. For the same molecule, the “alpha-glucosidase inhibition (in words)” value in the experiment on alpha-glucosidase is on record as “weak inhibitors”.

With `O=C(O)c1cc(O)cc(O)c1` [Compound 1, 3,5-dihydroxybenzoic acid], the half-maximal inhibitory concentration (IC50) in experiment [1] (setting [5]) was 729 µM.

`NC[C@H]1O[C@H](O[C@H]2[C@H](O)[C@@H](O[C@H]3O[C@H](CO)[C@@H](O)[C@H](N)[C@H]3O)[C@H](N)C[C@@H]2N)[C@H](O)[C@@H](O)[C@@H]1O` [kanamycin, reference compound] gave an MIC in the experiment with Staphylococcus aureus [4] of 4 µg/mL (≈ 8.26 µM). Consider `Cc1cc(O)c(O)c(O)c1` [Compound 5, 3-hydroxyorcinol], for which the IC50 in experiment [1] (setting [5]) was 694 µM.

In the case of `Cc1cc(O)cc(O)c1` [orcinol], the MIC in the experiment on various microorganisms was 30 to 500 µg/mL. Consider `COc1c(O)cc(C(=O)O)cc1O` [Compound 4, 3,5-dihydroxy-4-methoxylbenzoic acid], for which the IC50 in experiment [1] (setting [5]) is 929 µM. On to `COC(=O)c1c(C)cc(O)c(C=O)c1O` [Compound 7, methyl hematommate], for which the IC50 in experiment [1] (setting [5]) is 294 µM. The “alpha-glucosidase inhibition (in words)” value in the experiment with alpha-glucosidase is reported as “potent activity”.

The molecule `Cc1cc(O)cc(O)c1C(=O)OCC(O)C(O)CO` [Compound 10, D-montagnetol] came in with an IC50 in experiment [1] of over 1100 µM. `COC(=O)c1cc(O)cc(O)c1` [Compound 2, 3,5-dihydroxybenzoate methyl]: the IC50 in experiment [1] (setting [5]) was 939 µM. As to `CCOC(=O)c1c(C)cc(O)cc1O` [ethyl orsellinate], in the experiment on various microorganisms, the minimal inhibitory concentration (MIC) was 30 to 500 µg/mL. As to `Cc1cc(O)c(Br)c(O)c1C(=O)OCC(O)C(O)CO` [Compound 10a, 3-bromo-D-montagnetol], in experiment [1], 381 µM corresponded to half-maximal inhibition (IC50). Besides, the zone of inhibition at 50 µg/mL in the experiment with Enterococcus faecium stood at 13 mm.

Consider `COC(=O)c1c(C)c(Br)c(O)c(Br)c1O` [Compound 9a, methyl 3,5-dibromo-orsellinate], for which the half-maximal inhibitory concentration (IC50) in experiment [1] is 459 µM. In the experiment on Staphylococcus aureus [2], this molecule yielded a zone of inhibition at 50 µg/mL of 29 mm. In the experiment on Staphylococcus aureus [4] (read-out: MIC), the MIC is 4 µg/mL (≈ 11.8 µM). Take `CN[C@@H]1[C@@H](O[C@H]2O[C@H](CO)[C@@H](N)[C@H](O)[C@H]2O)OC2C[C@@H](N)[C@@H](O[C@H]3[C@H](O)[C@@H](O)[C@H](N)C[C@@H]3N)OC2[C@@H]1O` (some centres unmarked) [Apramycin, reference compound]: the zone of inhibition at 50 µg/mL in the experiment with Acinetobacter baumannii was found to be 20 mm; in the experiment with Enterococcus faecium, 21 mm; in the experiment on Staphylococcus aureus [2] it was 21 mm.

On to `Cc1cc(O)c(C=O)c(O)c1` [Compound 6, atranol], for which the IC50 in experiment [1] is over 1970 µM.
